This is an account of results in patent publication US20240207208A1, “Treatments for Diabetes Mellitus and Obesity” (The Board of Trustees of the Leland Stanford Junior …, priority 2011, published 2024).

Assay [1] is described as follows: Body weight change monitoring after local RTX treatment of the intestine. On the set-up: body weight: unit not given here. Particulars: for body weight: mean±s.e. In kind it is in vivo, Sprague-Dawley rats. The text has this:
(§1) Adult male Sprague-Dawley rats (Harlan, Indianapolis, IN) weighing 280-350 g were used in all the experiments. The animal protocol was approved by the Institutional Animal Care and Use Committee of the Stanford University Medical Center.
(§2) Rats were randomly divided into six groups: 1, vehicle solution treated on the surface of duodenum (n=4); 2, RTX solution treated on the surface of duodenum (n=4); 3, vehicle solution treated on the surface of ileum (1 rat) or colon (1 rat) (n=2); 4, RTX solution treated on the surface of ileum (2 rats) or colon (1 rat) (n=3); 5. Vehicle solution infuse into duodenum (n=2); 6. RTX solution infuse into duodenum (n=3).
(§3) Rats were fasted overnight prior to surgery having free access to water. Under 2% isoflurane-induced anesthesia, the abdomen was opened through a midline incision for the duodenum treatment and lower line for ileum or colon treatment. These intestines were exposed and protected with warm saline sponges around the intestine. Procedure 1: RTX application on the surface of intestine: The cotton applicator with RTX((0.32 mM) or vehicle solution were gently applied topically to the outer surface of entire duodenum (about 10 cm from the beginning of the duodenum) for 5 min. Same treatment in ileum and colon groups were applied on about 10 cm long of distal ileum and colon. Procedure 2: RTX or vehicle infused into duodenum: Two atraumatic clamps used to block on beginning and distal of duodenum. 0.8 ml of 0.32 mM RTX or vehicle was infused into duodenum through a glass syringe with a 27 gauge needle. After 30 min the RTX or vehicle solution were withdrawn and the clamps were released. After treatment, the abdominal incisions were closed.
RTX solution: RTX stock solution: 1 mg RTX+10% ethanol+10% Tween-80 in saline to make 1 μg RTX/μl in stock solution. RTX work solution (0.32 mM): stock RTX solution (0.2 ml)+Saline (0.8 ml); Vehicle (like stock solution without RTX)
The body weight of rats was measured before RTX treatment and each blood glucose testing day.
Data are presented as means±s.e. Data were compared using Student's t-test. Differences were considered significant at <0.05.

Assay [2] can be described thus: Oral glucose tolerance test (OGTT) after local RTX treatment of the intestine. It counts as in vivo, Sprague-Dawley rats.
Description: as §1, §2
as §3, with “closed. […]” for “closed.”
Post RTX treatment 1st, 3rd and 7th week all the rats were performed the OGTT. After 17 hours overnight fasting, blood glucose was measured in conscious rats by tail-stick, using a glucose meter (Bayer Healthcare LLC, Mishawaka, IN). OGTT was measured before (baseline) and each 15 minutes for 2 hours after oral gavage glucose (1 g/kg body weight). […]

As to `C=C(C)[C@]12C[C@@H](C)[C@@]34O[C@](Cc5ccccc5)(O[C@@H]1[C@@H]3C=C(COC(=O)Cc1ccc(O)c(OC)c1)C[C@]1(O)C(=O)C(C)=C[C@@H]41)O2` [RTX, Resiniferatoxin], the body weight is listed as 102.4±3.0 in assay [1] (RTX infused into duodenum, 1st week post treatment); 123.1±1.6 in assay [1] (RTX infused into duodenum, 3rd week post treatment); 136.3±2.5 in assay [1] (RTX infused into duodenum, 7th week post treatment); 92.0±1.0 in assay [1] (RTX on the surface of duodenum, 1st week post treatment, P<0.05 vs vehicle and vs RTX infusion); 110.5±2.6 in assay [1] (RTX on the surface of duodenum, 3rd week post treatment, P<0.05 vs RTX infusion); 118.9±0.9 in assay [1] (RTX on the surface of duodenum, 7th week post treatment, P<0.05 vs RTX infusion). The “body weight compared with vehicle group” value in assay [1] (RTX infused into duodenum, all measurement days) is “not significantly different”; in assay [1] (RTX on the surface of duodenum, 3rd and 7th week post treatment), “not significantly different”; in assay [1] (RTX on the surface of ileum or colon, all measurement days), “not significantly different”. For the same compound, the “glucose tolerance compared with vehicle group (OGTT)” value in assay [2] (0.8 ml of 0.32 mM RTX infused into duodenum, 30 min, 2 hours testing time, all testing days) is “not significantly different”; in assay [2] (RTX 0.32 mM topically on the surface of duodenum, 5 min, 30 and 45-minute peak levels, 1st, 3rd and 7th week post treatment, P<0.05), “better glucose tolerance”; in assay [2] (RTX 0.32 mM topically on the surface of ileum or colon, 2 hours testing time, all testing days) it was “not significantly different”.
